Assay results as given in patent publication US7485642B2, “Method for treating septic shock” (Orion Corporation, priority 2000, dated 2009).

System: porcine model of endotoxin shock
Test: porcine model of endotoxin shock
Format: in vivo, landrace pigs
Method: 20 kg landrace pigs were anesthetized and catheterized. After baseline measurements 8 pigs received 200 μg/kg levosimendan as a 10 minute bolus followed by an infusion of 200 μg/kg/hour. 9 animals served as controls.
In the second phase of the experiment the animals were given an infusion of endotoxin (from E. Coli bacteria) 30 minutes after the start of the bolus dose of levosimendan. The endotoxin infusion was maintained for 3 hours and the levosimendan infusion was maintained throughout the experiment until 5 hours after onset of endoxemia. Comparison between the two groups was made with ANOVA.
The changes in the cardiac index, splanchnic (portal) blood flow index, portal venous blood lactate and pulmonary vascular resistance are shown in FIGS. 1-4. In the Figures, (−0.5 h) means the start of levosimendan bolus and (0 h) the start of endotoxin infusion.

[1] = porcine model of endotoxin shock, 200 μg/kg 10 minute bolus followed by infusion of 200 μg/kg/hour, E. Coli endotoxin infusion 3 hours

For `CC1CC(=O)NN=C1c1ccc(NN=C(C#N)C#N)cc1` (single isomer, unassigned; (-)) [levosimendan, (−)-[[4-(1,4,5,6-tetrahydro-4-methyl-6-oxo-3-pyridazinyl)phenyl]hydrazono]propanedinitrile], the survival (8 levosimendan treated pigs, until 5 hours after onset of endotoxemia) was “All levosimendan treated animals survived”, the “endotoxin-induced decreases in cardiac output” value [1] was “counteracts” and the endotoxin-induced splanchnic hyperperfusion [1] was “counteracts endotoxin-induced splanchnic hyperperfusion”. For the same compound, the “endotoxin-induced circulatory disorders (cardiac index, portal blood flow index, portal venous blood lactate, pulmonary vascular resistance; FIGS. 1-4)” value (vs control, ANOVA, until 5 hours after onset of endotoxemia) was “can significantly counteract endotoxin-induced circulatory disorders”.
